Results published in PubChem BioAssay (NCI).
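Interpolation was linear, between the two tested concentrations surrounding the appropriate level; five concentrations were tested over 48 hours in 96-well plates. GI50 marks 50% less growth. TGI is the concentration that stops growth completely.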

Key:
Test in all cases: NCI anticancer screen, dose series, 48 h
HS 578T breast = test system: HS 578T breast
HOP-92 NSCLC = test system: HOP-92 NSCLC
SK-OV-3 ovarian = test system: SK-OV-3 ovarian
SNB-75 CNS = test system: SNB-75 CNS
SN12C renal = test system: SN12C renal
UACC-257 melanoma = test system: UACC-257 melanoma
OVCAR-8 ovarian = test system: OVCAR-8 ovarian
IGROV1 ovarian = test system: IGROV1 ovarian
NCI-H460 lung = test system: NCI-H460 lung
TK-10 renal = test system: TK-10 renal
U251 CNS = test system: U251 CNS
UACC-62 melanoma = test system: UACC-62 melanoma
MDA-MB-435 = test system: MDA-MB-435
NCI-H522 lung = test system: NCI-H522 lung
SF-268 CNS = test system: SF-268 CNS
SK-MEL-2 melanoma = test system: SK-MEL-2 melanoma
SK-MEL-28 melanoma = test system: SK-MEL-28 melanoma
DU-145 prostate = test system: DU-145 prostate
MALME-3M melanoma = test system: MALME-3M melanoma
NCI-H23 lung = test system: NCI-H23 lung
OVCAR-3 ovarian = test system: OVCAR-3 ovarian
BT-549 breast = test system: BT-549 breast
UO-31 renal = test system: UO-31 renal
NCI/ADR-RES ovarian = test system: NCI/ADR-RES ovarian
COLO 205 colon = test system: COLO 205 colon
OVCAR-4 ovarian = test system: OVCAR-4 ovarian
T-47D breast = test system: T-47D breast
MDA-MB-231 breast = test system: MDA-MB-231 breast
SNB-19 CNS = test system: SNB-19 CNS
786-0 renal = test system: 786-0 renal
OVCAR-5 ovarian = test system: OVCAR-5 ovarian
SW-620 colon = test system: SW-620 colon
K-562 leukemia = test system: K-562 leukemia
SF-539 CNS = test system: SF-539 CNS
A498 renal = test system: A498 renal
CCRF-CEM leukemia = test system: CCRF-CEM leukemia
MOLT-4 leukemia = test system: MOLT-4 leukemia
PC-3 prostate = test system: PC-3 prostate
LOX IMVI melanoma = test system: LOX IMVI melanoma
M14 melanoma = test system: M14 melanoma
HCC-2998 colon = test system: HCC-2998 colon
HCT-116 colon = test system: HCT-116 colon
RXF 393 renal = test system: RXF 393 renal
A549 NSCLC = test system: A549 NSCLC
SK-MEL-5 melanoma = test system: SK-MEL-5 melanoma
EKVX NSCLC = test system: EKVX NSCLC
HOP-62 NSCLC = test system: HOP-62 NSCLC
SR leukemia = test system: SR leukemia
RPMI-8226 leukemia = test system: RPMI-8226 leukemia
NCI-H226 lung = test system: NCI-H226 lung
HL-60(TB) leukemia = test system: HL-60(TB) leukemia
MCF7 breast = test system: MCF7 breast
HCT-15 colon = test system: HCT-15 colon
HT29 colon = test system: HT29 colon
SF-295 CNS = test system: SF-295 CNS
KM12 colon = test system: KM12 colon
ACHN renal = test system: ACHN renal
CAKI-1 renal = test system: CAKI-1 renal

`CC(C)c1ccc(COCc2cc(CN3CCCC3)c(O)c3ncccc23)cc1` showed a GI50 (HS 578T breast) of 1.72 µM, a TGI (HS 578T breast) of 7.54 µM and a GI50 (HOP-92 NSCLC) of 1.67 µM. For the same compound, the TGI (HOP-92 NSCLC) was 11.7 µM, the GI50 (SK-OV-3 ovarian) was 0.639 µM and the TGI (SK-OV-3 ovarian) was 4.53 µM. It also gave a GI50 (SNB-75 CNS) of 1.19 µM, a TGI (SNB-75 CNS) of 11.5 µM and a GI50 (SN12C renal) of 0.825 µM. The TGI (SN12C renal) was 4.6 µM, the GI50 (UACC-257 melanoma) was 0.783 µM and the TGI (UACC-257 melanoma) was 3.93 µM. It also gave a GI50 (OVCAR-8 ovarian) of 0.43 µM, a TGI (OVCAR-8 ovarian) of 2.15 µM and a GI50 (IGROV1 ovarian) of 0.493 µM. The TGI (IGROV1 ovarian) was 4.36 µM, the GI50 (NCI-H460 lung) was 0.395 µM and the TGI (NCI-H460 lung) was 1.47 µM. For the same compound, the GI50 (TK-10 renal) was 0.409 µM, the TGI (TK-10 renal) was 12.6 µM and the GI50 (U251 CNS) was 0.466 µM. The TGI (U251 CNS) was 2.45 µM, the GI50 (UACC-62 melanoma) was 0.318 µM and the TGI (UACC-62 melanoma) was 1.62 µM. For the same compound, the GI50 (MDA-MB-435) was 0.855 µM, the TGI (MDA-MB-435) was 11.2 µM and the GI50 (NCI-H522 lung) was 0.287 µM. It also gave a TGI (NCI-H522 lung) of 1.11 µM, a GI50 (SF-268 CNS) of 0.673 µM and a TGI (SF-268 CNS) of 7.98 µM. For the same compound, the GI50 (SK-MEL-2 melanoma) was 1.61 µM, the TGI (SK-MEL-2 melanoma) was 4.53 µM and the GI50 (SK-MEL-28 melanoma) was 0.768 µM. It also gave a TGI (SK-MEL-28 melanoma) of 10.2 µM, a GI50 (DU-145 prostate) of 0.77 µM and a TGI (DU-145 prostate) of 9.72 µM. It also gave a GI50 (MALME-3M melanoma) of 1.45 µM, a TGI (MALME-3M melanoma) of 8.12 µM and a GI50 (NCI-H23 lung) of 0.708 µM. For the same compound, the TGI (NCI-H23 lung) was 3.13 µM, the GI50 (OVCAR-3 ovarian) was 0.403 µM and the TGI (OVCAR-3 ovarian) was 1.87 µM. It also gave a GI50 (BT-549 breast) of 1.45 µM, a TGI (BT-549 breast) of 8.57 µM and a GI50 (UO-31 renal) of 0.127 µM. The TGI (UO-31 renal) was 2.14 µM, the GI50 (NCI/ADR-RES ovarian) was 0.0508 µM and the TGI (NCI/ADR-RES ovarian) was 0.84 µM. For the same compound, the GI50 (COLO 205 colon) was 3.34 µM, the TGI (COLO 205 colon) was 11.9 µM and the GI50 (OVCAR-4 ovarian) was 0.32 µM. It also gave a TGI (OVCAR-4 ovarian) of 1.41 µM, a GI50 (T-47D breast) of 0.398 µM and a TGI (T-47D breast) of 4.37 µM. It also gave a GI50 (MDA-MB-231 breast) of 0.774 µM, a TGI (MDA-MB-231 breast) of 3.27 µM and a GI50 (SNB-19 CNS) of 0.772 µM. For the same compound, the TGI (SNB-19 CNS) was 5.7 µM, the GI50 (786-0 renal) was 0.468 µM and the TGI (786-0 renal) was 3.83 µM. It also gave a GI50 (OVCAR-5 ovarian) of 1.43 µM, a TGI (OVCAR-5 ovarian) of 13.5 µM and a GI50 (SW-620 colon) of 0.471 µM. The TGI (SW-620 colon) was 2.38 µM, the GI50 (K-562 leukemia) was 0.374 µM and the TGI (K-562 leukemia) was 2.44 µM. The GI50 (SF-539 CNS) was 0.42 µM, the TGI (SF-539 CNS) was 2.04 µM and the GI50 (A498 renal) was 0.778 µM. The TGI (A498 renal) was 3.81 µM, the GI50 (CCRF-CEM leukemia) was 0.398 µM and the TGI (CCRF-CEM leukemia) was 3.91 µM. For the same compound, the GI50 (MOLT-4 leukemia) was 0.378 µM, the TGI (MOLT-4 leukemia) was 2.13 µM and the GI50 (PC-3 prostate) was 0.657 µM. It also gave a TGI (PC-3 prostate) of 11.2 µM, a GI50 (LOX IMVI melanoma) of 0.334 µM and a TGI (LOX IMVI melanoma) of 1.4 µM. The GI50 (M14 melanoma) was 0.351 µM, the TGI (M14 melanoma) was 1.99 µM and the GI50 (HCC-2998 colon) was 1.58 µM. It also gave a TGI (HCC-2998 colon) of 6.03 µM, a GI50 (HCT-116 colon) of 0.348 µM and a TGI (HCT-116 colon) of 1.47 µM. For the same compound, the GI50 (RXF 393 renal) was 0.878 µM, the TGI (RXF 393 renal) was 3.45 µM and the GI50 (A549 NSCLC) was 0.645 µM. The TGI (A549 NSCLC) was 8.31 µM, the GI50 (SK-MEL-5 melanoma) was 0.302 µM and the TGI (SK-MEL-5 melanoma) was 1.15 µM. For the same compound, the GI50 (EKVX NSCLC) was 0.746 µM, the TGI (EKVX NSCLC) was 11.9 µM and the GI50 (HOP-62 NSCLC) was 0.367 µM. The TGI (HOP-62 NSCLC) was 5.04 µM, the GI50 (SR leukemia) was 0.323 µM and the TGI (SR leukemia) was 2.08 µM. The GI50 (RPMI-8226 leukemia) was 0.601 µM, the TGI (RPMI-8226 leukemia) was 2.72 µM and the GI50 (NCI-H226 lung) was 0.912 µM. The TGI (NCI-H226 lung) was 3.19 µM, the GI50 (HL-60(TB) leukemia) was 0.314 µM and the TGI (HL-60(TB) leukemia) was 1.4 µM. It also gave a GI50 (MCF7 breast) of 0.365 µM, a TGI (MCF7 breast) of 1.52 µM and a GI50 (HCT-15 colon) of 0.0655 µM. It also gave a TGI (HCT-15 colon) of 2.07 µM, a GI50 (HT29 colon) of 2.64 µM and a TGI (HT29 colon) of 6.83 µM. For the same compound, the GI50 (SF-295 CNS) was 1.18 µM, the TGI (SF-295 CNS) was 6.26 µM and the GI50 (KM12 colon) was 0.534 µM. For the same compound, the TGI (KM12 colon) was 3.13 µM, the GI50 (ACHN renal) was 0.149 µM and the TGI (ACHN renal) was 5.44 µM. The GI50 (CAKI-1 renal) was 0.146 µM and the TGI (CAKI-1 renal) was 4.44 µM.
